Data: ChEMBL document CHEMBL3272039, “Potenial antitumor agents. 28. Deoxyribonucleic acid polyintercalating agents” (J Med Chem, 1978)

Key:
[1] = organism: Bos taurus; assay: Displacement of ethidium bromide from calf thymus DNA by spectrofluorometric analysis
[2] = system: P388; assay: Antitumor activity against mouse P388 cells allografted in ip dosed BDF1 mouse at optimum dose administered qd for 5 days relative to control; type: functional
[3] = (§1) Toxicity in ip dosed BDF1 mouse allografted with mouse P388 cells administered qd for 5 days; type: organism-based; conditions: BDF1, mouse, in vivo
[4] = Lipophilic-hydrophilic balance, Rm of the compound by reversed-phase chromatographic analysis; type: physicochemical
[5] = system: Mus musculus; assay: as §1; type: organism-based; conditions: mouse, in vivo, 120 h

Compound | C50 [1] [µM] | ILS [2] [%] | MTD at 120 h [3] [mg/kg/day] | Rm [4] | Activity [5] [mg/kg/day]
Cl.c1ccc(OCCCCCCCCCOc2ccccc2Nc2c3ccccc3nc3ccccc23)c(Nc2c3ccccc3nc3ccccc23)c1 | 3.3 | >25 | > 500 | 0.85 | 
CCN(CC)CCCC(C)Nc1ccnc2cc(Cl)ccc12.Cl (stereo unspecified) | 11 | >25 | 40 |  | 
c1ccc2c(NCCNc3c4ccccc4nc4ccccc34)c3ccccc3nc2c1 | 0.7 | >25 | 5 | -0.44 | 
CCN(CC)CCCC(C)Nc1c2ccc(Cl)cc2nc2ccc(OC)cc12.CS(C)(=O)=O (stereo unspecified) | 0.51 | >25 | 90 |  | 
O.c1ccc(OCCCNc2ccnc3ccccc23)c(Nc2c3ccccc3nc3ccccc23)c1 | 2.7 | >25 | 50 | -0.19 | 
c1ccc2c(NCCCCCCCCCCNc3c4ccccc4nc4ccccc34)c3ccccc3nc2c1 | 0.09 | 33 |  | 0.65 | 2.5
Cl.c1ccc(OCCCCCOc2ccccc2Nc2c3ccccc3nc3ccccc23)c(Nc2c3ccccc3nc3ccccc23)c1 | 1.4 | >25 | > 500 | 0.6 | 
Cl.c1ccc(OCCCCCCCCOc2ccccc2Nc2c3ccccc3nc3ccccc23)c(Nc2c3ccccc3nc3ccccc23)c1 | 9 | >25 | > 500 | 0.82 | 
c1ccc2c(NCCCCCCCCCCCCNc3c4ccccc4nc4ccccc34)c3ccccc3nc2c1 | 0.11 | >25 | 5 | 0.79 | 
Cl.c1ccc(OCCCCCCCCCCOc2ccccc2Nc2c3ccccc3nc3ccccc23)c(Nc2c3ccccc3nc3ccccc23)c1 | 8 | >25 | > 500 | 0.92 | 
c1ccc2c(NCCCCCCCNc3c4ccccc4nc4ccccc34)c3ccccc3nc2c1 | 0.1 | 67 |  | 0.27 | 5
Cl.O=S(=O)(CCCCCCNc1c2ccccc2nc2ccccc12)Nc1ccc(Nc2c3ccccc3nc3ccccc23)cc1 | 0.21 | >25 | 150 | 0.08 | 
COc1cc(NS(=O)(=O)CCCCS(=O)(=O)Nc2ccc(Nc3c4ccccc4nc4c(C(N)=O)cccc34)c(OC)c2)ccc1Nc1c2ccccc2nc2c(C(N)=O)cccc12.Cl.O | 0.068 | >25 | 11 | -0.64 | 
c1ccc2c(NCCCCCCNc3c4ccccc4nc4ccccc34)c3ccccc3nc2c1 | 0.15 | 53 |  | 0.13 | 2.5
c1ccc2c(NCCCCCNc3c4ccccc4nc4ccccc34)c3ccccc3nc2c1 | 0.21 | 36 |  | -0.06 | 7.5
Cl.O.c1ccc(OCCCCCCNc2ccnc3ccccc23)c(Nc2c3ccccc3nc3ccccc23)c1 | 0.99 | >25 | 15 | 0.42 | 
CS(=O)(=O)Nc1ccc(Nc2c3ccccc3nc3ccccc23)c(OCCCCOc2cc(NS(C)(=O)=O)ccc2Nc2c3ccccc3nc3ccccc23)c1.Cl | 0.22 | >25 | > 500 | 0.01 | 
Cl.c1ccc(OCCCCOc2ccccc2Nc2ccnc3ccccc23)c(Nc2ccnc3ccccc23)c1 | 9.2 | >25 | 25 | -0.1 | 

Compound | C50 [1] [µM] | ILS [2] [%] | MTD at 120 h [3] [mg/kg/day] | Rm [4] | Activity [5] [mg/kg/day]
Cl.O=S(=O)(CCCCS(=O)(=O)Nc1ccc(Nc2c3ccccc3nc3ccccc23)cc1)Nc1ccc(Nc2c3ccccc3nc3ccccc23)cc1 | 0.053 | >25 | > 500 | -0.11 | 
Br.O=S(=O)(CCCNc1ccnc2ccccc12)Nc1ccc(Nc2c3ccccc3nc3ccccc23)cc1 | 0.12 | >25 | 375 | -0.45 | 
COc1cc(NS(=O)(=O)CCCCCCS(=O)(=O)Nc2ccc(Nc3c4ccccc4nc4ccccc34)c(OC)c2)ccc1Nc1c2ccccc2nc2ccccc12.Cl.O | 0.15 | >25 | 270 | 0.42 | 
Cl.c1ccc(OCCCCOc2ccccc2Nc2c3ccccc3nc3ccccc23)c(Nc2c3ccccc3nc3ccccc23)c1 | 0.8 | >25 | > 500 | 0.53 | 
c1ccc2c(NCCCCNc3c4ccccc4nc4ccccc34)c3ccccc3nc2c1 | 0.3 | >25 | 10 | -0.26 | 
Cl.O.c1ccc(OCCCCCNc2ccnc3ccccc23)c(Nc2c3ccccc3nc3ccccc23)c1 | 1.9 | >25 | 17 | 0.23 | 
Cl.c1ccc(OCCCCCCOc2ccccc2Nc2c3ccccc3nc3ccccc23)c(Nc2c3ccccc3nc3ccccc23)c1 | 2.1 | >25 | > 500 | 0.71 | 
Cl.O.c1ccc(OCCCCNc2ccnc3ccccc23)c(Nc2c3ccccc3nc3ccccc23)c1 | 2.6 | >25 | 20 | -0.07 | 
Cl.Nc1c2ccccc2nc2ccccc12 [AMINACRINE HYDROCHLORIDE] | 8.1 | >25 | 12.5 | -0.08 | 
Cl.O.c1ccc(OCCOc2ccccc2Nc2c3ccccc3nc3ccccc23)c(Nc2c3ccccc3nc3ccccc23)c1 | 0.4 | >25 | 125 | 0.17 | 
Cl.c1ccc(OCCCCCCCOc2ccccc2Nc2c3ccccc3nc3ccccc23)c(Nc2c3ccccc3nc3ccccc23)c1 | 3.8 | >25 | > 500 | 0.75 | 
CS(=O)(=O)Nc1ccc(Nc2c3ccccc3nc3c(C(N)=O)cccc23)c(OCCCCOc2cc(NS(C)(=O)=O)ccc2Nc2c3ccccc3nc3c(C(N)=O)cccc23)c1.Cl.O | 0.72 | >25 | 275 | -0.87 | 
Cl.c1ccc(OCCCCCCCCNc2ccnc3ccccc23)c(Nc2c3ccccc3nc3ccccc23)c1 | 0.6 | >25 | 31 | 0.59 | 
Cl.O.c1ccc(OCCCCCCCNc2ccnc3ccccc23)c(Nc2c3ccccc3nc3ccccc23)c1 | 0.71 | >25 | 25 | 0.52 | 
c1ccc2c(NCCCCCCCCCCCCCCCCNc3c4ccccc4nc4ccccc34)c3ccccc3nc2c1 | 0.23 | >25 |  | 0.88 | 
c1ccc2c(NCCCCCCCCNc3c4ccccc4nc4ccccc34)c3ccccc3nc2c1 | 0.11 | 55 |  | 0.44 | 2.5
c1ccc2c(NCCCCCCCCCCCCCCNc3c4ccccc4nc4ccccc34)c3ccccc3nc2c1 | 0.14 | >25 |  | 0.82 | 
